The record followed here is publication PMC6917776, “Discovery of a chemical probe for PRDM9” (Nature Communications, 2019).

Molecules are shown by their SMILES. Where two headings read alike, the source gives them in different places. Where only a bound is given, the exact number is not on record here.

One experiment has as its target T1, BCDIN3D (Homo sapiens, UniProt Q7Z5W3).
T1 construct: purchased Structural Genomics Consortium (SGC Toronto) in-house methyltransferase panel
T1 sequence (Q7Z5W3 1-292): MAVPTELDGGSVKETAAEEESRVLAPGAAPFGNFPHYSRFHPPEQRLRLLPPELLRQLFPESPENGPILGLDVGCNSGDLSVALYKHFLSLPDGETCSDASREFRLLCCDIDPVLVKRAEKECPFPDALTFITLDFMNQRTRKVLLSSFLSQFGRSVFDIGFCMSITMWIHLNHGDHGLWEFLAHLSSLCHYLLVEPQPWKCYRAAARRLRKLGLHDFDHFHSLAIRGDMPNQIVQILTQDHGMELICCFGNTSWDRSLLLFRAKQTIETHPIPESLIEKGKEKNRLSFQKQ
The experiment can be described thus: Methyltransferase selectivity assay (SPA). It counts as biochemical. The procedure:
Selectivity against methyltransferases were determined as described previously. Details of the assays are described in the supplementary methods.
Methyltransferase selectivity assay1
The effect of chemical probes and negative controls on the methyltransferase activities of protein, DNA and RNA methyltransferases was tested by radiometric assays using 3H-SAM. For proteins such as MLL1 trimeric, MLL3 pentameric, EZH1 (PRC2) pentameric, and EZH2 (PRC2) trimeric complexes, as well as G9a, GLP, SUV39H1, SUV39H2, SUV420H1, SUV420H2, SETD2, SETD8, SETDB1, SETD7, PRMT1, PRMT3, PRMT4, PRMT5/ MEP50 complex, PRMT6, PRMT7, PRMT8, PRMT9, PRDM9, SMYD2, SMYD3, DNMT1, and BCDIN3D the incorporation of a tritium-labeled methyl group into biotinylated substrate was monitored using scintillation proximity assay (SPA). Briefly, a 10 µL reaction containing 3H-SAM and substrate at concentrations close to the apparent Km values for each enzyme (balanced conditions) was prepared. The reactions were quenched with 10 µL of 7.5 M guanidine hydrochloride; 180 µL of 20 mM Tris buffer (pH 8.0) were added, and the mixture was transferred to a 96-well FlashPlate and incubated for 1 h. The counts per minute (CPM) was measured on a TopCount plate reader. The CPM in the absence of compound or enzyme was defined as 100% activity and background (0%), respectively, for each dataset. For DNMT1, the double-stranded DNA substrate was prepared by annealing two complementary strands (biotinylated forward strand: B-[…] and reverse strand:
) that were synthesized by Eurofins MWG Operon
For proteins which were tested with nucleosome as substrate such as DOT1L, NSD1, NSD2, NSD3, and ASH1L, or unbiotinylated Poly(2′-deoxyinosinic-2′-deoxycytidylic acid) (Cat# 81349-500UG, Sigma Aldrich) such as DNMT3A/3L, and DNMT3B/3L, a filter-based assay was used. In this assay, a trichloroacetic acid (TCA) protein precipitation protocol was employed. A 10 µL reaction mixture was incubated at 23°C for 1 h, followed by addition of 50 µL of 10% TCA. The mixture was transferred to filter plates (Millipore, Billerica, MA, USA) that were centrifuged at 2000 rpm (Allegra X-15R; Beckman Coulter, Brea, CA, USA) for 2 min. Samples were washed twice with 10% TCA and once with ethanol (180 µL), and centrifuged. After drying, 100 µL MicroScint-O (Perkin Elmer) was added to each well and the plates were centrifuged to remove the liquid. A 70 µL volume of MicroScint-O was added and the CPM was measured with a TopCount plate reader.

Another experiment concerns the target PRDM9 (Homo sapiens, UniProt Q9NQV7). In words: PRDM9 cellular assay: H3K4me3 of exogenous H3-GFP in HEK293T cells (western blot). The format is cell-based. The settings on record: for IC50: H3-GFP and PRDM9-FLAG co-transfected, 20 h of treatment, read-out: IC50, PRDM9-dependent trimethylation of ectopic H3K4. The procedure:
HEK293T cells were co-transfected with H3-GFP and PRDM9-FLAG and treated with compounds at indicated concentrations for 20 h. Mut denotes PRDM9 catalytic mutant (Y357S). […] Cells were treated with compounds for 1 day. Cell number was measured using IncuCyte™ ZOOM live cell imaging device. The results are mean ± sd, n = 3. Source data are provided as a Source Data file.
HEK293T (kind gift from Sam Benchimol, York University), or MCF7 (ATCC® HTB-22™), cells were plated (12 well plates) and next day co-transfected with 0.1 (HEK293T) or 0.2 (MCF7) µg of GFP-tagged histone H3 and with 0.1 (HEK293T) or 0.2 (MCF7) µg of Flag-tagged PRDM9/PRDM9 catalytic mutant (Y357S) and 0.8 or 0.6 µg of empty vector using JetPRIME® transfection reagent, following manufacturer instructions. After 4 h media was removed and cells were treated with compounds for 20 h. Next day, cells were lysed in lysis buffer (20 mM Tris-HCl pH 8, 150 mM NaCl, 1 mM EDTA, 10 mM MgCl2, 0.5% TritonX-100, 12.5 U mL^−1 benzonase (Sigma), complete EDTA-free protease inhibitor cocktail (Roche)). After 2 min incubation at RT, SDS was added to final 1% concentration. Cell lysates were analyzed in western blot for GFP and H3K4me3 levels. All cell lines were mycoplasma negative, as determined by MycoAlert™ Mycoplasma Detection Kit (Lonza).
Total cell lysates were resolved in 4–12% Bis-Tris Protein Gels (Invitrogen) and transferred in for 1.5 h (80 V) onto PVDF membrane (Millipore) in Tris-Glycine transfer buffer containing 20% MeOH and 0.05% SDS. Blots were blocked for 1 h in blocking buffer (5% milk in PBS) and incubated with primary antibodies anti-GFP (1:3000, Clontech # 632381), anti-H3K4me3 (1:1000, Millipore, #04-745), anti-histone H3 (1:2000, #ab10799, Abcam), anti-Flag (1:5000, #F4799, Sigma) in blocking buffer (5% BSA in 0.1% Tween 20 PBS) overnight at 4 °C. After five washes with 0.1% Tween 20 PBS the blots were incubated with goat-anti rabbit (IR800) and donkey anti-mouse (IR 680) antibodies (1:5000) in Odyssey Blocking Buffer (LiCor) for 1 h at RT and washed five times with 0.1% Tween 20 PBS. The signal was read on an Odyssey scanner (LiCor) at 800 nm and 700 nm and analyzed with Image Studio Ver.5.2 software.

Where [1] appears, read: 10µM compound, Exp1, Exp2, 10 µM.
Setting [2] is: HEK-293T, 20 h, Figure 6b, replicates, read-out: H3K4me3/GFP - western blot, % control.

Sequence of PRDM9 (Q9NQV7 whole entry): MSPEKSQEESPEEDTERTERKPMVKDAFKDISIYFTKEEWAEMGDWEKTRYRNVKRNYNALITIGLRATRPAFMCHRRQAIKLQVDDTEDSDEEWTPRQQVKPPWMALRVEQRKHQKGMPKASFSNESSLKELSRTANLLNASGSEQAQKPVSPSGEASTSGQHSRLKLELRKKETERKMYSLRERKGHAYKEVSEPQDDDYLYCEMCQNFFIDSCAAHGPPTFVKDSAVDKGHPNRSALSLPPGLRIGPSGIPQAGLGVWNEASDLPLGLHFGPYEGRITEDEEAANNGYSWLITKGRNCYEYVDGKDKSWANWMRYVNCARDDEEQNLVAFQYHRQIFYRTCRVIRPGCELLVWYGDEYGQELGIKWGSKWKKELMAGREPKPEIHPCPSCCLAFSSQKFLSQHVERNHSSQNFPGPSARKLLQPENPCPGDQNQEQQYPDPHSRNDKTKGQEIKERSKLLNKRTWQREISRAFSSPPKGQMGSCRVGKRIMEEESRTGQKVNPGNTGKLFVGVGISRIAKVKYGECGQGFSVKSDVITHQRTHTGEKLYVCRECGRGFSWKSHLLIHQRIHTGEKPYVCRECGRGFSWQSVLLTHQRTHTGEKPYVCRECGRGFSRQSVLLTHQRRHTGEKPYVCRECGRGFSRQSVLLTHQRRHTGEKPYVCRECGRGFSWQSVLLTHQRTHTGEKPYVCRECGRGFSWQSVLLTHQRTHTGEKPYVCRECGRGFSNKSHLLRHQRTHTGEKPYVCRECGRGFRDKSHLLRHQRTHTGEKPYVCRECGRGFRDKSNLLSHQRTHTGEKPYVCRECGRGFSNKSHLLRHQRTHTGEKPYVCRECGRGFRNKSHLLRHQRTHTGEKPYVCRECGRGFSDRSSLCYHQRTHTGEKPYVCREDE

As for `COc1cc(OC)cc(-c2noc(N3CCN(C)C4(CCN(c5ccccc5)CC4)C3)n2)c1` [MRK-740 -NC], the activity at 1 µM at BCDIN3D (1µM compound, Exp1, Exp2) was found to be 103%. The Activity % turned out to be 101% on BCDIN3D (1µM compound, Exp1, Exp2, 1 µM) and 94% on BCDIN3D (setting [1]). In addition, the activity at 10 µM at BCDIN3D (10µM compound, Exp1, Exp2) came to 100%.
As a reminder, the IC50 is the concentration that gives 50% inhibition. `COc1cc(OC)cc(-c2noc(N3CCN(C)C4(CCN(c5ccccc5)CC4)C3)n2)c1` [MRK-740-NC]: the half-inhibitory concentration (IC50) at PRDM9 was above 10000 nM. In addition, the remaining activity at 0.256 µM on PRDM9 (HEK-293T, 20 h, 0.256 µM, Figure 6b, replicates, read-out: H3K4me3/GFP - western blot, % control) stood at 100%. In addition, the remaining activity at 0.64 µM on PRDM9 (HEK-293T, 20 h, 0.64 µM, Figure 6b, replicates, read-out: H3K4me3/GFP - western blot, % control) was found to be 89.9%. On PRDM9 (HEK-293T, 20 h, 1.6 µM, Figure 6b, replicates, read-out: H3K4me3/GFP - western blot, % control), the remaining activity at 1.6 µM is 103%. Moreover, on PRDM9 (setting [2]), the remaining activity at 3.33334 µM is 113%. The remaining activity at 4 µM on PRDM9 (HEK-293T, 20 h, 4 µM, Figure 6b, replicates, read-out: H3K4me3/GFP - western blot, % control) is 111%. Moreover, the remaining activity at 10 µM at PRDM9 (HEK-293T, 20 h, 10 µM, Figure 6b, replicates, read-out: H3K4me3/GFP - western blot, % control) worked out at 116%.
For orientation: IC90 means the concentration needed for an effect of 90%. For the compound `COc1cc(OC)cc(-c2noc(N3CCN(C)C4(CCN(c5ccnc(C)c5)CC4)C3)n2)c1` [MRK-740], the IC50 on PRDM9 turned out to be 800 ± 100 nM. Further, at PRDM9 (HEK-293T, 20 h, 0.123455 µM, Figure 6b, replicates, read-out: H3K4me3/GFP - western blot, % control), the remaining activity at 0.123455 µM stood at 109%. The remaining activity at 0.370374 µM at PRDM9 (HEK-293T, 20 h, 0.370374 µM, Figure 6b, replicates, read-out: H3K4me3/GFP - western blot, % control) stood at 89.7%. The remaining activity at 1.11111 µM at PRDM9 (HEK-293T, 20 h, 1.11111 µM, Figure 6b, replicates, read-out: H3K4me3/GFP - western blot, % control) is 25.7%. The remaining activity at 3.33334 µM on PRDM9 (setting [2]) turned out to be 11.4%. In addition, the remaining activity at 30 µM at PRDM9 (HEK-293T, 20 h, 30 µM, Figure 6b, replicates, read-out: H3K4me3/GFP - western blot, % control) was determined as 3.21%. In addition, the IC90 at PRDM9 (HEK-293T, read-out: IC90, PRDM9-dependent H3K4 trimethylation in cells) is 3000 nM. Also, the Activity % stood at 100% on BCDIN3D (1µM compound, Exp1, Exp2, 1 µM) and 95% on BCDIN3D (setting [1]). Further, the activity at 1 µM on BCDIN3D (1µM compound, Exp1, Exp2, read-out: Activity %) was determined as 101%. The activity at 10 µM on BCDIN3D (10µM compound, Exp1, Exp2, read-out: Activity %) is 104%.
